Measured values published in US8410080B1, “2-methylene-vitamin D analogs and their uses” (Wisconsin Alumni Research Foundation, priority 2011, dated 2013).
“Also recorded” adds a separate entry of the source. Like-named read-outs stand apart in the source and are kept apart here.

Assays:
[1] = test system: Human promyelocytic leukemia (HL60) cells; experiment: HL-60 differentiation (nitro blue tetrazolium reduction); type: cell-based; conditions: for potency on HL-60 cell differentiation compared to 1,25(OH)2D3, in words: HL-60 cells; for EC50: HL60 cells, four days of treatment, read-out: EC50, ability to promote HL60 differentiation
Protocol: Serial dilutions were prepared so that a range of drug concentrations could be tested without changing the final concentration of ethanol (≦0.2%) present in the cell cultures.
Human promyelocytic leukemia (HL60) cells were grown in RPMI-1640 medium containing 10% fetal bovine serum. The cells were incubated at 37° C. in the presence of 5% CO2.
HL60 cells were plated at 1.2×10^5 cells/ml. Eighteen hours after plating, cells in duplicate were treated with drug. Four days later, the cells were harvested and a nitro blue tetrazolium reduction assay was performed (Collins et al., 1979; J. Exp. Med. 149:969-974). The percentage of differentiated cells was determined by counting a total of 200 cells and recording the number that contained intracellular black-blue formazan deposits. Verification of differentiation to monocytic cells was determined by measuring phagocytic activity (data not shown).

[2] = test system: 24-hydroxylase (24Ohase) gene promoter; experiment: In vitro transcription assay, luciferase reporter in ROS 17/2.8 (bone) cells; type: cell-based; conditions: for potency relative to 1,25(OH)2D3 in increasing transcription of the 24-hydroxylase gene: bone cells, fold more potent than 1,25(OH)2D3; for EC50: ROS 17/2.8 cells, 24-hydroxylase promoter-luciferase, sixteen hours after dosing, read-out: EC50, transcriptional activity in bone cells
Protocol: Transcription activity was measured in ROS 17/2.8 (bone) cells that were stably transfected with a 24-hydroxylase (24Ohase) gene promoter upstream of a luciferase reporter gene (Arbour et al., 1998). Cells were given a range of doses. Sixteen hours after dosing the cells were harvested and luciferase activities were measured using a luminometer. RLU=relative luciferase units.

[3] = Bone calcium mobilization (serum calcium) in vitamin D-deficient rats; type: in vivo, rat; conditions: for mobilization of bone calcium at 780 pmol/day: 780 pmol/day for 4 consecutive days; for mobilization of bone calcium at 780 pmol/day / bone calcium mobilization activity (serum calcium), in words: 0.02% Ca diet; for bone calcium mobilization activity (serum calcium), in words: dosages tested; for potency relative to the native hormone in releasing bone calcium stores: low calcium diet (0.02%), four consecutive ip doses
Protocol: (§1) Male, weanling Sprague-Dawley rats were placed on Diet 11 (Suda et al, J. Nutr. 100:1049, 1970) (0.47% Ca)+vitamins AEK for one week followed by Diet 11 (0.02% Ca)+vitamins AEK for 3 weeks. The rats were then switched to the same diet containing 0.47% Ca for one week followed by two weeks on the same diet containing 0.02% Ca. Dose administration began during the last week on 0.02% calcium diet. Four consecutive ip doses were given approximately 24 hours apart. Twenty-four hours after the last dose, blood was collected from the severed neck and the concentration of serum calcium determined by atomic absorption spectrometry as a measure of bone calcium mobilization. The first 10 cm of the intestine was also collected for intestinal calcium transport analysis using the everted gut sac method.

[4] = Intestinal calcium transport, everted gut sac method, in vitamin D-deficient rats; type: in vivo, rat; conditions: compared to 1,25(OH)2D3
Protocol: as §1

[5] = target: T1, full-length recombinant rat vitamin D receptor (Rattus norvegicus, UniProt P13053)
T1 sequence (P13053 1-423): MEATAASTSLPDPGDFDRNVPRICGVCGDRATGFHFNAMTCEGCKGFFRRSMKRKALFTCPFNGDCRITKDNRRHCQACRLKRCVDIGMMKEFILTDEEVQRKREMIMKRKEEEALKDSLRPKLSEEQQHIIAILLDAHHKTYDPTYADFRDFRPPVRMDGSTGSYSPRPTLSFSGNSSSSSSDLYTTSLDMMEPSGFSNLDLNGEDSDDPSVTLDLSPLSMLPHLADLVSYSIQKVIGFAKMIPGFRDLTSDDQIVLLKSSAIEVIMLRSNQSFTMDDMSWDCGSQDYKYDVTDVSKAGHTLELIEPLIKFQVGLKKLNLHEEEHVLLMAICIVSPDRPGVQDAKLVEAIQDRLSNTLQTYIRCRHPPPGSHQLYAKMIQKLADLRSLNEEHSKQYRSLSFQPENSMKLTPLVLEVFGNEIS
Protocol: (§2) Full-length recombinant rat receptor was expressed in E. coli BL21 (DE3) Codon Plus RIL cells and purified to homogeneity using two different column chromatography systems. The first system was a nickel affinity resin that utilizes the C-terminal histidine tag on this protein. The protein that was eluted from this resin was further purified using ion exchange chromatography (S-Sepharose Fast Flow). Aliquots of the purified protein were quick frozen in liquid nitrogen and stored at −80° C. until use. For use in binding assays, the protein was diluted in TEDK50 (50 mM Tris, 1.5 mM EDTA, pH7.4, 5 mM DTT, 150 mM KCl) with 0.1% Chaps detergent. The receptor protein and ligand concentration was optimized such that no more than 20% of the added radiolabeled ligand was bound to the receptor.
(§3) Radiolabeled and unlabeled ligands were added to 100 mcl of the diluted protein at a final ethanol concentration of ≦10%, mixed and incubated overnight on ice to reach binding equilibrium. The following day, 100 mcl of hydroxylapatite slurry (50%) was added to each tube and mixed at 10-minute intervals for 30 minutes. The hydroxylapaptite was collected by centrifugation and then washed three times with Tris-EDTA buffer (50 mM Tris, 1.5 mM EDTA, pH 7.4) containing 0.5% Titron X-100. After the final wash, the pellets were transferred to scintillation vials containing 4 ml of Biosafe II scintillation cocktail, mixed and placed in a scintillation counter. Total binding was determined from the tubes containing only radiolabeled ligand.

[6] = target: T1, full-length recombinant rat vitamin D receptor; experiment: biochemical
Protocol: as §2, §3

Row | EC50 ([1]; Homo sapiens, HL-60, 96 h) [nM] | binding affinity to the receptor compared to the standard 1,25-(OH)2D3, in words [5] | Ki [6] [nM] | EC50 [2] [nM] | SMILES | potency on HL-60 cell differentiation compared to 1,25(OH)2D3, in words [1] | potency relative to 1,25(OH)2D3 in increasing transcription of the 24-hydroxylase gene [2] | mobilization of bone calcium at 780 pmol/day [3] | bone calcium mobilization activity (serum calcium), in words [3] | potency relative to the native hormone in releasing bone calcium stores [3] | intestinal calcium transport activity, in words [4] | EC50 [1] [nM]
1 | 0.3 | about the same affinity | 0.1 | – | C=C1/C(=C/C=C2\CCC[C@]3(C)[C@@H]([C@@H](C)CCCC(C)(C)O)CC[C@@H]23)C[C@@H](O)C(=C)[C@@H]1O [T-2EG-S, (5E)-(20S)-1α,25-dihydroxy-2-methylene-vitamin D3] | more potent than 1,25(OH)2D3 | about 10 times | significant mobilization of bone calcium | more potent than the native hormone | at least 10 times | about the same potency as 1,25(OH)2D3; also recorded: very significant activity | –
2 | 7 | about the same affinity | 0.06 | 0.03 | C=C1/C(=C\C=C2/CCC[C@]3(C)[C@@H]([C@H](C)CCCC(C)(C)O)CC[C@@H]23)C[C@@H](O)C(=C)[C@@H]1O [2EG-R, (20R)-1α,25-dihydroxy-2-methylene-vitamin D3] | – | about 10 times | significant mobilization of bone calcium | more potent than the native hormone | at least 10 times | more potent than 1,25(OH)2D3; also recorded: very significant activity | –
3 | 0.06 | about the same affinity | 0.1 | 0.005 | C=C1/C(=C\C=C2/CCC[C@]3(C)[C@@H]([C@@H](C)CCCC(C)(C)O)CC[C@@H]23)C[C@@H](O)C(=C)[C@@H]1O [2EG-S, (20S)-1α,25-dihydroxy-2-methylene-vitamin D3] | more potent than 1,25(OH)2D3 | about 40 times | significant mobilization of bone calcium | more potent than the native hormone | at least 10 times | more potent than 1,25(OH)2D3; also recorded: very significant activity | –

Row | SMILES | EC50 ([1]; Homo sapiens, HL-60, 96 h) [nM] | binding affinity to the receptor compared to the standard 1,25-(OH)2D3, in words [5] | Ki [6] [nM] | EC50 [2] [nM] | potency on HL-60 cell differentiation compared to 1,25(OH)2D3, in words [1] | potency relative to 1,25(OH)2D3 in increasing transcription of the 24-hydroxylase gene [2] | mobilization of bone calcium at 780 pmol/day [3] | bone calcium mobilization activity (serum calcium), in words [3] | potency relative to the native hormone in releasing bone calcium stores [3] | intestinal calcium transport activity, in words [4] | EC50 [1] [nM]
4 | C=C1/C(=C\C=C2/CCC[C@]3(C)[C@@H]([C@H](C)CCCC(C)(C)O)CC[C@@H]23)C[C@@H](O)C[C@@H]1O [1α,25-dihydroxyvitamin D3, reference compound] | – | – | – | 0.2 | – | – | – | increased serum calcium levels | – | – | 3
